Experimental data reported in patent US20130079345A1, “[…] ACTIVE DISUBSTITUTED TRIAZINE DERIVATIVES” (BAYER INTELLECTUAL PROPERTY GMBH, priority 2010, published 2013).
Where a name gives a salt, the structure may show the parent alone.

Tests used:
[1] = target: T1, CDK2/CyclinA (Homo sapiens, UniProt P24941); assay: Lance Ultra KinaSelect Assay, CDK2; type: biochemical; settings: ATP 3 μM, read-out: Inhibition (IC50) CDK2
T1 construct: purchased Proqinase
Procedure: (§1) This protocol describes how the Lance Ultra KinaSelect Assay was performed to determine half maximal inhibitory concentration (IC50) of compounds of general formula (I) and CDK/Cyclin complexes. The principle behind this enzymatic assay is based upon the phosphorylation of the ULight-Peptide Substrat. It is detected by using a specific EU-labeled anti-phospho peptide antibody. The binding of the Eu-labeled anti-phospho peptide antibody to the phosphorylated U Light labeled peptide gives rise to a FRET-signal. Binding of an inhibitor to the kinase prevents phosphorylation of the ULight-MBP Substrat, resulting in a loss of FRET.
(§2) The compounds of general formula (I) summarized in Table 5 were diluted from a 10 mM DMSO stock solution 1:10 in a total volume of 15 μL DMSO. This compound predilution was then serial diluted 1:3 over 8 steps in DMSO and briefly spun down. Each compound solution was now diluted 1:20 in Enzymatic Buffer (HEPES: 50 mM, pH: 7.5; MgCl2: 10 mM; EGTA: 1 mM; DTT: 2 mM; Tween-20: 0.01%), mixed thoroughly and spun down. For every sample, 2 μL of the diluted compound were mixed with 6 μL CDK/Cyclin/Substrat solution and […] in a well of a small volume 384 well plate (Corning Incorporated, Corning, N.Y., USA; order no. 3673). […] For positive controls, in each well 2 μL of DMSO solution (1% final DMSO assay concentration) was mixed with 6 μL CDK/Cyclin/Substrat (appropriate final concentration see Table 3) and 2 μL Tracer ATP solution (appropriate final concentration see Table 3). Positive and negative controls were calculated from at least 8 different sample wells. The 384 well plates were mixed in a Teleshaker plate mixer (Beckman Coulter, Brea, Calif., USA) at 2000 rpm for 40 sec, and incubated for 1 h at room temperature. Before reading, 10 μL detection buffer (Lance Detection Buffer 1×; EDTA: […]; Eu-Anti-P-MBP: see Table 3) was added. The FRET signal was measured at 340 nm excitation, 665 nm and 615 nm emission (for the kinase tracer and LanthaScreen Eu-AB, respectively) with an Envision spectrophotometer (Perkin Elmer, Waltham, Mass., USA) with 50 μs delay and 300 μs integration time. IC50 values were determined from the sigmoidal dose response curves with the software Quattro Workflow (Quattro GmbH, Munich, Germany).

[2] = target: T2, CDK9/Cyclin K (Homo sapiens, UniProt P50750); assay: LanthaScreen Eu Kinase Binding Assay, CDK9/Cyclin K; settings: tracer 236, read-out: Affinity (Kd) CDK9/Cyclin K
T2 construct: purchased Invitrogen
T2 sequence (P50750 whole entry): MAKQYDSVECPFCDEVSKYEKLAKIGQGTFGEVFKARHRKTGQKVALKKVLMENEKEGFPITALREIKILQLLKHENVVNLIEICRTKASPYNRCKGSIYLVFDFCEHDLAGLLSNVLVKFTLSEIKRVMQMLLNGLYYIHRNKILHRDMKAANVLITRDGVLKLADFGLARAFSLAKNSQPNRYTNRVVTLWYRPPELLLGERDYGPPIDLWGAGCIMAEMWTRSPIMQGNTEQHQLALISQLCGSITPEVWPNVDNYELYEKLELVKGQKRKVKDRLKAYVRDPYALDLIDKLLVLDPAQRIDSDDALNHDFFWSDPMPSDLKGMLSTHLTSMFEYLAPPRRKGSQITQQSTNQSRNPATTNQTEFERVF
T2 sequence (O75909 whole entry partner): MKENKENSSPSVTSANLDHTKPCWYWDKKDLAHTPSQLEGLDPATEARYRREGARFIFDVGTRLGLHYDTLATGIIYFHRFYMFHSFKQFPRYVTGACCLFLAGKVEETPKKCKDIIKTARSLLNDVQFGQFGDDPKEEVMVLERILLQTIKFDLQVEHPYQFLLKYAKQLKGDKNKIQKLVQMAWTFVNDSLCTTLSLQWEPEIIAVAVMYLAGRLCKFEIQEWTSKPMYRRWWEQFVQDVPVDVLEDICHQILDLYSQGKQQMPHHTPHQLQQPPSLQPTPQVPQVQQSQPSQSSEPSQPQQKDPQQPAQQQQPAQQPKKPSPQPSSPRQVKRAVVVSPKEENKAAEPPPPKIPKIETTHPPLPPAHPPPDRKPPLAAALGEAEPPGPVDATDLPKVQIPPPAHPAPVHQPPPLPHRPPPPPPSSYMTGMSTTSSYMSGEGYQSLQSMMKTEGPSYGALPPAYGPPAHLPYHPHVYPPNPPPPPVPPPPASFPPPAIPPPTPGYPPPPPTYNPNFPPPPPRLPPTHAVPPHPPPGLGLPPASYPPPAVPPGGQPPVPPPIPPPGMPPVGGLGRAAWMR
Method in brief: (§3)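 TR-FRET competition binding with Alexa Fluor 647 tracer and Eu-anti-GST antibody; e.g. CDK2/Cyclin A 15 nM with tracer 236 60 nM (working solutions). Kinase buffer: HEPES 20 mM pH 8.0, MgCl2 10 mM, DTT 1 mM, Brij-35 0.01%; 8-point 1:3 series, 1 h at room temperature; Kd from sigmoidal dose-response curves.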

[3] = target: T1, CDK2/CyclinA; assay: LanthaScreen Eu Kinase Binding Assay, CDK2; settings: tracer 236, read-out: Affinity (Kd) CDK2
Method in brief: as §3

[4] = target: T3, CDK4/CyclinD1 (Homo sapiens, UniProt P11802); assay: Lance Ultra KinaSelect Assay, CDK4; type: biochemical; settings: ATP 90 μM, read-out: Inhibition (IC50) CDK4
T3 construct: purchased Invitrogen
T3 sequence (P11802 whole entry): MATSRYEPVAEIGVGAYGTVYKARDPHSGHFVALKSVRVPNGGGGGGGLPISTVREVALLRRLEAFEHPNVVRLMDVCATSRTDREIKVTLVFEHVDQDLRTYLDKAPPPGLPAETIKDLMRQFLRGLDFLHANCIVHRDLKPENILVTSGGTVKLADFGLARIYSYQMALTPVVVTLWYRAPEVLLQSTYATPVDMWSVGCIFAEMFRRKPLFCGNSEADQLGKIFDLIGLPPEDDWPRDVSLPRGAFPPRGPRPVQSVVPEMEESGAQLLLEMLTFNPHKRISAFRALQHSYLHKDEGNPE
T3 sequence (P24385 whole entry partner): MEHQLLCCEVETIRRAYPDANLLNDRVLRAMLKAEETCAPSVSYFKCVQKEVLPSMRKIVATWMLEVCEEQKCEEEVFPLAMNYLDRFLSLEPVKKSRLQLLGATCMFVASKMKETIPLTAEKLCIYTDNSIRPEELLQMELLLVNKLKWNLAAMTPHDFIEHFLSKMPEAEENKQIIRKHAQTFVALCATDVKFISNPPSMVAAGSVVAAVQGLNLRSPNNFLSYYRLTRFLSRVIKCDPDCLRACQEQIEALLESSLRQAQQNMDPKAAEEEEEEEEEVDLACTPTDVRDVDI
Procedure: as §1, §2

[5] = target: T4, CDK1/CyclinB1 (Homo sapiens, UniProt P06493); assay: Lance Ultra KinaSelect Assay, CDK1; type: biochemical; settings: ATP 20 μM, read-out: Inhibition (IC50) CDK1
T4 construct: purchased Carna
T4 sequence (P06493 whole entry): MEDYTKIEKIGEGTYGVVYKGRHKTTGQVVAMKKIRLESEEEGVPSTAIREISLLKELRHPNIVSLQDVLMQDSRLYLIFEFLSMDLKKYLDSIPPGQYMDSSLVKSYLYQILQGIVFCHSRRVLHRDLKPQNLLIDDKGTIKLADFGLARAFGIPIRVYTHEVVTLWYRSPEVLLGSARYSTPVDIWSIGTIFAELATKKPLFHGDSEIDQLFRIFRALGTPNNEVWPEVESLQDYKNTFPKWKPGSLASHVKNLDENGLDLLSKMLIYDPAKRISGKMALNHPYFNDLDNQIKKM
T4 sequence (P14635 whole entry partner): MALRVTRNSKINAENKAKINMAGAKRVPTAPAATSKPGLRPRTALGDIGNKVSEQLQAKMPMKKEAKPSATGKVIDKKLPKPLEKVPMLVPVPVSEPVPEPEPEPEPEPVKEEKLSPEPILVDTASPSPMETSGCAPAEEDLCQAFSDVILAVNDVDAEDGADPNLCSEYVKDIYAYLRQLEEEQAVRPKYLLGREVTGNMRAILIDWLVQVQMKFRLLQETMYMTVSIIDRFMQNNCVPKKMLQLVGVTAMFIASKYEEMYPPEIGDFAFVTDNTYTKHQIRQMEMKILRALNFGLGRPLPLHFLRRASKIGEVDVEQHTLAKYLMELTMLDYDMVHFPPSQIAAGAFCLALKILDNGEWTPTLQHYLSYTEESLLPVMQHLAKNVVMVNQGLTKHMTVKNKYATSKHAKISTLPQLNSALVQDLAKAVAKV
Procedure: as §1, §2

| SMILES | IC50 [1] | Kd [2] | Kd [3] | IC50 [4] | IC50 [5] |
| --- | --- | --- | --- | --- | --- |
| COc1ccccc1-c1ncnc(Nc2cccc(CS(N)(=O)=O)c2)n1 [B1′, 3-[(4-(2-Methoxyphenyl)-1,3,5-triazin-2-yl)amino]benzenemethanesulfonamide trifluoroacetic acid salt] | 3080 nM | 48.7 nM | 798 nM | > 10 µM | 12 µM |
| COc1cc(F)ccc1-c1ncnc(Nc2cccc(CS(N)(=O)=O)c2)n1 [B2′, 1-(3-{[4-(4-fluoro-2-methoxyphenyl)-1,3,5-triazin-2-yl]amino}phenyl)methanesulfonamide hydrochloride] |  |  | 207 nM |  |  |
| COc1cc(F)ccc1-c1ncnc(Nc2cccc(CS(N)(=O)=O)c2)n1 [B2″, 1-(3-{[4-(4-fluoro-2-methoxyphenyl)-1,3,5-triazin-2-yl]amino}phenyl)methanesulfonamide trifluoroacetic acid salt] | 568 nM | 5 nM |  | 3.21 µM | 0.899 µM |
| NS(=O)(=O)Cc1cccc(Nc2ncnc(-c3ccccc3OCc3ccccc3)n2)c1 [B13′, 3-[(4-(2-Benzyloxyphenyl)-1,3,5-triazin-2-yl)amino]benzenemethanesulfonamide trifluoroacetic acid salt] | 1770 nM | 5 nM | 88 nM | 0.681 µM | 3.4 µM |
| COc1ccccc1-c1ncnc(Nc2cccc(S(N)(=O)=O)c2)n1 [C1′, 3-[(4-(2-Methoxyphenyl)-1,3,5-triazin-2-yl)amino]benzenesulfonamide trifluoroacetic acid salt] | 781 nM | 5 nM | 220 nM | 1.51 µM | 1.35 µM |
| COc1ccc(F)cc1-c1ncnc(Nc2cccc(CS(N)(=O)=O)c2)n1 [Compound B3, 3-[(4-(5-Fluoro-2-methoxyphenyl)-1,3,5-triazin-2-yl)amino]benzenemethanesulfonamide] |  | 5 nM | 375 nM |  |  |
| COc1cccc(F)c1-c1ncnc(Nc2cccc(CS(N)(=O)=O)c2)n1 [Compound B4, 3-[(4-(6-Fluoro-2-methoxyphenyl)-1,3,5-triazin-2-yl)amino]benzenemethanesulfonamide] | 1440 nM | 20.9 nM | 704 nM | > 10 µM | 5.68 µM |
| COc1cc(Cl)ccc1-c1ncnc(Nc2cccc(CS(N)(=O)=O)c2)n1 [Compound B6, 3-[(4-(4-Chloro-2-methoxyphenyl)-1,3,5-triazin-2-yl)amino]benzenemethanesulfonamide] | > 10000 nM | 12.5 nM |  | > 10 µM | > 10 µM |
| CCOc1ccccc1-c1ncnc(Nc2cccc(CS(N)(=O)=O)c2)n1 [Compound B12, 3-[(4-(2-Ethoxyphenyl)-1,3,5-triazin-2-yl)amino]benzenemethanesulfonamide] | 2930 nM | 11.1 nM | 2350 nM | > 10 µM | 11.5 µM |
| NS(=O)(=O)Cc1cccc(Nc2ncnc(-c3ccccc3OCc3ccccc3)n2)c1 [Compound B13, 3-[(4-(2-Benzyloxyphenyl)-1,3,5-triazin-2-yl)amino]benzenemethanesulfonamide] |  |  | 687 nM |  |  |
| NS(=O)(=O)Cc1cccc(Nc2ncnc(-c3ccccc3Oc3ccccc3)n2)c1 [Compound B14, 1-(3-{[4-(2-phenoxyphenyl)-1,3,5-triazin-2-yl]amino}phenyl)methanesulfonamide] |  | 26.4 nM | 3450 nM |  |  |
| NS(=O)(=O)Cc1cccc(Nc2ncnc(-c3ccccc3OCc3ccncc3)n2)c1 [Compound B16, 3-[(4-(2-((4-Pyridinyl)methoxy)phenyl)-1,3,5-triazin-2-yl)amino]benzenemethanesulfonamide] | 1070 nM | 5.7 nM | 1690 nM | > 10 µM | 6.77 µM |
| COc1cnccc1-c1ncnc(Nc2cccc(CS(N)(=O)=O)c2)n1 [Compound B19, 3-[(4-(3-Methoxypyridin-4-yl)-1,3,5-triazin-2-yl)amino]benzenemethanesulfonamide] |  | 11.5 nM |  |  |  |

Results, then the compound that gave them:

| IC50 [1] | Kd [2] | Kd [3] | IC50 [4] | IC50 [5] | SMILES |
| --- | --- | --- | --- | --- | --- |
| 515 nM | 99.5 nM | 310 nM | 9.32 µM | 2.58 µM | COc1ccccc1-c1ncnc(Nc2cccc(CCS(N)(=O)=O)c2)n1 [Compound D1, 2-[3-((4-(2-Methoxyphenyl)-1,3,5-triazin-2-yl)amino)phenyl]ethanesulfonamide] |
| 423 nM | 5 nM | < 5 nM | > 10 µM | > 10 µM | COc1cc(F)ccc1-c1ncnc(Nc2cccc(CCS(N)(=O)=O)c2)n1 [Compound D2, 2-[3-((4-(4-Fluoro-2-methoxyphenyl)-1,3,5-triazin-2-yl)amino)phenyl]ethanesulfonamide] |
|  | 15.8 nM | 68 nM |  |  | COc1ccccc1-c1ncnc(Nc2cccc([N+](=O)[O-])c2)n1 [Compound H1, 4-(2-Methoxyphenyl)-N-(3-nitrophenyl)-1,3,5-triazine-2-amine] |
| 826 nM | 35.9 nM | 283 nM | > 10 µM | > 10 µM | COc1ccccc1-c1ncnc(Nc2cccc(NS(C)(=O)=O)c2)n1 [Compound K1, N-[3-((4-(2-Methoxyphenyl)-1,3,5-triazin-2-yl)amino)phenyl]-methanesulfonamide] |
| > 10000 nM |  |  | > 10 µM | > 10 µM | CCCS(=O)(=O)Nc1cccc(Nc2ncnc(-c3ccccc3OC)n2)c1 [Compound L1, N-[3-((4-(2-Methoxyphenyl)-1,3,5-triazin-2-yl)amino)phenyl]-propanesulfonamide] |
|  |  | 709 nM |  |  | COc1ccccc1-c1ncnc(Nc2ccccc2)n1 [Compound P1, 4-(2-Methoxyphenyl)-N-phenyl-1,3,5-triazine-2-amine] |
